Laboratory results published in patent US20230080144A1, “REAL-TIME FLUORESCENCE IMAGING SENSOR FOR MEASURING GLUTATHIONE IN ENDOPLASMIC RETICULUM AND METHOD USING SAME” (CELL2IN, INC., priority 2019, published 2023).

Tested on: UC-MSCs
Test: Cytotoxicity test (EZ-cytox)
Format: cell-based
Conditions: for IC50: 24 hours treatment at 5, 10, 20 and 40 μM, absorbance at 450 nm
Description: (1) UC-MSCs (4×10^3 cells/well) were cultured in 96-well dishes for 24 hours. (2) The cells were treated with […] of each of ER-FT derivative compounds (Formulas IV to VII) at concentrations of 5, 10, 20 and 40 μM and then incubated at 37° C. for 24 hours. (3) 10 μl of 10× EZ-cytox was added to each well, followed by incubation for 3 hours. (4) The absorbance at 450 nm was measured using a plate reader (reference wavelength: 600 to 650 nm).

SMILES | IC50 [µM] | toxicity (comparison among Formulas IV to VII) (24 hours)
Cc1ccc(S(=O)(=O)NCCCOCCOCCOCCCNC(=O)C2CCN(C(=O)C(C#N)=Cc3cc4cc5c6c(c4oc3=O)CCCN6CCC5)CC2)cc1 [Formula V] | 36.4 | 
N#CC(=Cc1cc2cc3c4c(c2oc1=O)CCCN4CCC3)C(=O)N1CCC(C(=O)NCCNC(=O)c2c(F)c(F)c(F)c(F)c2F)CC1 [Formula VI] | 33.4 | 
N#CC(=Cc1cc2cc3c4c(c2oc1=O)CCCN4CCC3)C(=O)N1CCC(C(=O)NCCCOCCOCCOCCCNC(=O)c2c(F)c(F)c(F)c(F)c2F)CC1 [Formula VII] | 13.3 | 
Cc1ccc(S(=O)(=O)NCCNC(=O)C2CCN(C(=O)C(C#N)=Cc3cc4cc5c6c(c4oc3=O)CCCN6CCC5)CC2)cc1 [Formula IV] | 43.4 | lowest toxicity
